Reference: paper PMC9030166, “Natural Phaeosphaeride A Derivatives Overcome Drug Resistance of Tumor Cells and Modulate Signaling Pathways” (Pharmaceuticals, 2022)

What was measured:
HCT-116 = assay: MTT cytotoxicity, HCT-116 colorectal cancer cells; assay type: cell-based, human; details: 48 h; for IC50: Homo sapiens, HCT-116, adhesive tumor culture
Excerpt: (§1) Cell cultures used in the work: adhesive cultures HBL-100 cells (cells of a normal mammary gland epithelium, immortalized by the SV40 virus and acquired tumorigenicity); MCF-7 breast cancer cells; PC-3 prostate adenocarcinoma cells; HCT-116 colorectal cancer cells; non-small cell lung cancer cells A549; human embryonic kidney cells HEK293; suspension cultures (NCI-H929 and RPMI8226 multiple myeloma cells), K562 chronic myeloid leukemia cells; THP-1 acute monocytic leukemia cells; and Jurkat acute T-cell leukemia cells. We also used several primary cultures of soft tissue sarcomas at 3–4passeges, kindly provided by T.I. Fetisov (The Ethics Committee of N.N. Blokhin NMRCO, protocol code 18-28-09095 and date of approval 28 September 2018).
(§2) Modifications of cell lines: K562/i-S9 is a clone obtained after transfection of K562 cells with the ABCB1 (MDR1) gene-encoding P-glycoprotein [36]. Cells HBL-100/Dox and K562/i-S9_Dox are cells obtained by long-term selection with increasing concentrations of doxorubicin (Sigma-Aldrich, St. Louis, MO, USA) from HBL-100 and K562/i-S9 cells, respectively. MCF-7, A594 cells, and primary cultures of soft tissue sarcomas were cultured in DMEM medium (PanEko, Russia), PC-3 and HCT-116 cells and all suspension cultures in RPMI1640 medium (PanEko, Russia) supplemented with 10% fetal bovine serum (GE Healthcare LifeSciences, USA), and gentamicin at a concentration of 40 μg/mL at 37 °C and 5% CO2.
(§3) Cells MCF-7, PC-3, A549, and HCT-116, and primary cultures of STSwere seeded in 96-well plates, 6 × 10^3 cells per well in 90 μL of culture medium. Suspension cultures were seeded at a concentration of 25 × 10^3 cells per well in 135 μL of medium. The test substances were dissolved in DMSO (Applichem, Council Bluffs, IA, USA) until a concentration of 1 × 10^−^2 M was obtained; for the subsequent dilution of the substances, a serum-free culture medium was used. The next day, for adhesive cultures, and on the same day, for suspension cultures, substances were added to the plates in a volume of 10 μL (adhesive cultures) and 15 μL (suspension cultures) per well at various concentrations; each concentration was added in 3–4 repetitions. The cells were cultured in the presence of substances for 48 h. Then, MTT reagent (PanEko, Moscow, Russia) was added to the wells at a concentration of 5 mg/mL in a volume of 20 μL per well. After 1.5–2 h, the medium with the reagent was removed, and the precipitate of the crystals of formazan was dissolved in 60 μL of DMSO. The optical density was determined using a Multiskan FC spectrophotometer (Thermo Scientific, Waltham, MA, USA) at a wavelength of 540 nm.
(§4) Based on the results of the experiments, a schedule was plotted of the dependence of the percentage of surviving cells (from control) on the concentration of the compound, and the sought concentration IC50 was calculated. The experiments were carried out in 3–4 times.

RPMI8226 = assay: MTT cytotoxicity, RPMI8226 multiple myeloma cells; assay type: cell-based; details: Homo sapiens, RPMI-8226, suspension culture, 48 h
Excerpt: as §1, §2, §3, §4

[1] = test system: CMT № 1 (Extraskeletal Ewing’s Sarcoma); assay: MTT cytotoxicity, primary culture of soft tissue sarcoma CMT № 1; assay type: cell-based; details: Homo sapiens, 48 h
Excerpt: It is believed that such cultures have a molecular profile that corresponds more with cells from the human body, in comparison with that of stable cultures of tumor cells (Table 3).
as §1, §2
as §3, with “Then, MTT reagent (PanEko, Moscow, Russia) was added to the wells at a concentration of 5 mg/mL in a volume of 20 μL per well. After 1.5–2 h, the medium with the reagent was removed, and the precipitate of the crystals of formazan was dissolved in 60 μL of DMSO.” left out
Based on the results of the experiments, a schedule was plotted of the dependence of the percentage of surviving cells (from control) on the concentration of the compound, and the sought concentration IC50 was calculated. […]

A431 cells = assay: IC50 on A431 cells (xCelligence RTCA cell index); assay type: cell-based; details: Homo sapiens, A-431
Excerpt: A431 cells are characterized by a high inducibility of transcription factors STAT3 and STAT5. In turn, phaeosphaeride A and its derivatives are probably inhibitors of the STAT3 gene. Therefore, the A431 cell line was chosen as a model for searching for possible targets for the action of phaeosphaeride A derivatives. Table 7 presents IC50 data for phaeosphaeride A derivatives on A431 cells.
(§5) The effect of various concentrations of PPA derivatives on the cell culture was studied using xCelligence RTCA equipment (AceaBioscience, San Diego, CA, USA). The concentration closest to the IC50 (10 μM) was chosen as the experimental concentration. The selected concentration of phaeosphaeride A derivatives allows for the assessment of the early effect of compounds on cells and compares their effectiveness. In this experiment, the signaling pathways Akt (pSer473), p70S6K (pThr412), NFkB (p65-pSer536), and CREB (pSer133) were not activated (Table 8). The stress-activated signaling pathways ERK/MAP kinase 1/2 (pThr185/pTyr187), JNK (pThr183/pTyr185), and p38 (pThr180/pTyr182) were activated for these compounds.
To determine the integral cellular response using the xCelligence RTCA equipment (AceaBioscience, Santa Clara, CA, USA), 20 thousand cells were inoculated into a well of a specialized plate allowing the determination of the cell index in real time and cultured in complete growth medium. The next day after the seeding, the medium was replaced with an experimental one (compounds at concentrations of […]). The cell index was monitored for 3 days after the addition of the xenobiotic. The concentration closest to the IC50 (10 μM) was chosen as the experimental concentration.

Akt (pSer473) = assay: MILLIPLEX MAP 9-Plex, Akt active form in A431 lysates; assay type: cell-based, human; details: A431 cell lysates, 10 μM, 1 h, M ± mx; control 76.4 ± 16.9
Excerpt: (§6) We used the MILLIPLEX MAP Multi-Pathway Magnetic Bead 9-Plex-Cell Signaling Multiplex Assay, which allows the simultaneous detection of nine phosphorylated proteins that are markers of the main intracellular signaling pathways (phosphorylation site is indicated in parentheses), a universal transcription factor that controls the expression of immune response genes; apoptosis and cell cycle NFκB (pS536); cAMP-dependent transcription factor (CREB (pS133); mitogen-activated kinase p38 (pT180/pY182); stress-activated protein kinase JNK (pT183/pY185); ribosomal […]; transcription factors STAT3 (pS727) and STAT5A/B (pY694/699); protein kinase B (Akt) (pS473); and kinase regulated by extracellular signals ERK1/2 (pT185/pY187).
as §5
(§7) We used a MILLIPLEX MAP Multi-Pathway Magnetic Bead 9-Plex-Cell Signaling Multiplex Assay kit (Merck/Millipore), according to the manufacturer’s protocol. A431 cells were cultured in DMEM with 10% FBS in 24-well plates. Compounds were added to the subconfluent cells at a concentration of 10 μM in DMEM medium for 1 h. Each compound was added in 5 experimental repeats. Cell lysates were prepared with lysis buffer (Millipore) with protease inhibitors (Complete, Roche); the protein concentration in the lysates was determined by the Lowry method. In samples equalized in protein concentration, the active forms of kinase cascades were determined using a Bio-Plex 200 fluorescent analyzer (Bio-Rad).

STAT5 (pTyr694/699) = assay: MILLIPLEX MAP 9-Plex, STAT5 active form in A431 lysates; assay type: cell-based, human; details: 10 μM; for STAT5 (pTyr694/699) fluorescence intensity: A431 cell lysates, 1 h, M ± mx, control 44.2 ± 10.2
Excerpt: as §6, §5, §7

IC50 (A431 cells) [µM]	SMILES	IC50 (HCT-116) [µM]	IC50 (RPMI8226) [µM]	IC50 [1] [µM]	Akt (pSer473) fluorescence intensity (Akt (pSer473))	STAT5 (pTyr694/699) fluorescence intensity (STAT5 (pTyr694/699))	activation of transcription factor STAT5A/B (pTyr694/699), in words (STAT5 (pTyr694/699); A431 cells)	IC50 value, HCT-116 (HCT-116; adhesive tumor culture)
4.6	C=C1C2=C(C(=O)N1OC)[C@@H](N(CC)CCO)[C@@](C)(O)[C@H](CCCCC)O2 [Compound 9, (2S,3R,4R)-4-[ethyl(2-hydroxyethyl)amino]-3-hydroxy-6-methoxy-3-methyl-7-methylene-2-pentyl-3,4,6,7-tetrahydropyrano[2,3-c]pyrrol-5(2H)-one]	3.9 ± 0.1	1.8 ± 0.2	2.9 ± 1.1	88.8 ± 10.7 rel. units	69.6 ± 15.6 rel. units	–	–
> 50	C=C1C2=C(C(=O)N1OC)[C@@H](N(CCCC)CCCC)[C@@](C)(O)[C@H](CCCCC)O2 [Compound 5, (2S,3R,4R)-4-(dibutylamino)-3-hydroxy-6-methoxy-3-methyl-7-methylene-2-pentyl-3,4,6,7-tetrahydropyrano[2,3-c]pyrrol-5(2H)-one]	12 ± 0.9	6.3 ± 0.3	–	100.9 ± 11.7 rel. units	75.7 ± 2.7 *↑ rel. units	–	–

Continued, molecule first:

SMILES	IC50 (A431 cells) [µM]	IC50 (HCT-116) [µM]	IC50 (RPMI8226) [µM]	IC50 [1] [µM]	Akt (pSer473) fluorescence intensity (Akt (pSer473))	STAT5 (pTyr694/699) fluorescence intensity (STAT5 (pTyr694/699))	activation of transcription factor STAT5A/B (pTyr694/699), in words (STAT5 (pTyr694/699); A431 cells)	IC50 value, HCT-116 (HCT-116; adhesive tumor culture)
C=C1C2=C(C(=O)N1OC)[C@@H](N(C)C)[C@@](C)(O)[C@H](CCCCC)O2 [Compound 2, (2S,3R,4R)-4-(dimethylamino)-3-hydroxy-6-methoxy-3-methyl-7-methylene-2-pentyl-3,4,6,7-tetrahydropyrano[2,3-c]pyrrol-5(2H)-one]	1.9	4.2 ± 0.2	1.6 ± 0.5	1.6 ± 0.7	132.4 ± 17.9 rel. units	179.2 ± 12.6 *↑ rel. units	slightly activated	–
CCCCC[C@@H]1OC2=C(C(=O)N(OC)/C2=C\n2cnnc2)C(n2cnnc2)[C@@]1(C)O (some centres unmarked) [Compound 10]	> 50	–	51 ± 0.2	–	142.1 ± 9.5 *↑ rel. units	115.2 ± 16.9 *↑ rel. units	–	not active
C=C1C2=C(C(=O)N1OC)[C@@H](N1CCCC1)[C@@](C)(O)[C@H](CCCCC)O2 [Compound 1]	3.7	7.6 ± 0.9	1.6 ± 0.3	2.6 ± 1.1	112.6 ± 12.0 rel. units	115.4 ± 28.3 rel. units	–	–
